Laboratory results: ChEMBL document CHEMBL5678818, “Discovery of potent SOS1 inhibitors that block RAS activation via disruption of the RAS-SOS1 interaction” (Proc Natl Acad Sci U S A, 2019)

Tests used:
[1] = system: Tyrosine-protein kinase ABL1 (Homo sapiens), P00519 [Q252H]; test: Inhibition of nonphosphorylated ABL1 Q252H mutant (unknown origin) assessed as residual activity at 100 nM by KINOMEscan analysis relative to control
[2] = system: Tyrosine-protein kinase ABL1 (Homo sapiens), P00519 [Q252H]; test: Inhibition of phosphorylated ABL1 Q252H mutant (unknown origin) assessed as residual activity at 100 nM by KINOMEscan analysis relative to control
[3] = molecular target: Protein-tyrosine kinase 6 (Homo sapiens) (UniProt Q13882); test: Inhibition of BRK (unknown origin) assessed as residual activity at 100 nM by KINOMEscan analysis relative to control
[4] = molecular target: T1, Ephrin type-A receptor 3 (Homo sapiens) (UniProt P29320); test: Inhibition of EPHA3 (unknown origin) assessed as residual activity at 100 nM by KINOMEscan analysis relative to control
T1 sequence (whole entry): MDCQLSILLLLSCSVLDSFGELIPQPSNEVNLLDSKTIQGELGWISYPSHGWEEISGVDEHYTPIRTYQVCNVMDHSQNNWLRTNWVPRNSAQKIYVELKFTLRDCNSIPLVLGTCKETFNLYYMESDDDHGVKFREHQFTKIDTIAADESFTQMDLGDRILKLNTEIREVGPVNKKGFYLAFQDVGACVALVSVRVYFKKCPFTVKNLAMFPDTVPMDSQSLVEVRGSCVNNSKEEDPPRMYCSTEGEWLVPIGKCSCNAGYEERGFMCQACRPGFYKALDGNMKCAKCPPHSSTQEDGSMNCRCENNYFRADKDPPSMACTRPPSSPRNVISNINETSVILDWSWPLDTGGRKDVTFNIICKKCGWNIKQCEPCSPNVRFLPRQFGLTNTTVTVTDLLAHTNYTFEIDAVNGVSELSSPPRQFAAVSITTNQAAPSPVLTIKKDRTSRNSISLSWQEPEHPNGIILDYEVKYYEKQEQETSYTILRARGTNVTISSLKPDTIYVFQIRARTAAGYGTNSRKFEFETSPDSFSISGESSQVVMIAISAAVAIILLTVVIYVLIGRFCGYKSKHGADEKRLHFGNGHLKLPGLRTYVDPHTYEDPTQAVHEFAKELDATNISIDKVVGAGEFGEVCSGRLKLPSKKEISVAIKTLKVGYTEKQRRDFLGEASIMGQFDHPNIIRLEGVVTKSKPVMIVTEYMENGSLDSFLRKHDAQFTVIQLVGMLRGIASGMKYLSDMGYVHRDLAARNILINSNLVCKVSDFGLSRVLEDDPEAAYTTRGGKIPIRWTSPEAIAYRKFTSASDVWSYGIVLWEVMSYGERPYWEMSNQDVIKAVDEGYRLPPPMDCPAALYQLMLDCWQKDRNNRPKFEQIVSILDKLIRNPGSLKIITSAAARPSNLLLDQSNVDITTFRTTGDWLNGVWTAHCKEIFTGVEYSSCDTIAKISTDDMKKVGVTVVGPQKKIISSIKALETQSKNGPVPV

[5] = molecular target: Mast/stem cell growth factor receptor Kit (Homo sapiens) (UniProt P10721); test: Inhibition of autoinhibited KIT (unknown origin) assessed as residual activity at 100 nM by KINOMEscan analysis relative to control
[6] = molecular target: LIM domain kinase 1 (Homo sapiens) (UniProt P53667); test: Inhibition of LIMK1 (unknown origin) assessed as residual activity at 100 nM by KINOMEscan analysis relative to control
[7] = molecular target: Platelet-derived growth factor receptor beta (Homo sapiens) (UniProt P09619); test: Inhibition of PDGFRB (unknown origin) assessed as residual activity at 100 nM by KINOMEscan analysis relative to control
[8] = molecular target: TRAF2 and NCK-interacting protein kinase (Homo sapiens) (UniProt Q9UKE5); test: Inhibition of TNIK (unknown origin) assessed as residual activity at 100 nM by KINOMEscan analysis relative to control
[9] = molecular target: T2, Dual specificity protein kinase TTK (Homo sapiens) (UniProt P33981); test: Inhibition of TTK (unknown origin) assessed as residual activity at 100 nM by KINOMEscan analysis relative to control
T2 sequence (whole entry): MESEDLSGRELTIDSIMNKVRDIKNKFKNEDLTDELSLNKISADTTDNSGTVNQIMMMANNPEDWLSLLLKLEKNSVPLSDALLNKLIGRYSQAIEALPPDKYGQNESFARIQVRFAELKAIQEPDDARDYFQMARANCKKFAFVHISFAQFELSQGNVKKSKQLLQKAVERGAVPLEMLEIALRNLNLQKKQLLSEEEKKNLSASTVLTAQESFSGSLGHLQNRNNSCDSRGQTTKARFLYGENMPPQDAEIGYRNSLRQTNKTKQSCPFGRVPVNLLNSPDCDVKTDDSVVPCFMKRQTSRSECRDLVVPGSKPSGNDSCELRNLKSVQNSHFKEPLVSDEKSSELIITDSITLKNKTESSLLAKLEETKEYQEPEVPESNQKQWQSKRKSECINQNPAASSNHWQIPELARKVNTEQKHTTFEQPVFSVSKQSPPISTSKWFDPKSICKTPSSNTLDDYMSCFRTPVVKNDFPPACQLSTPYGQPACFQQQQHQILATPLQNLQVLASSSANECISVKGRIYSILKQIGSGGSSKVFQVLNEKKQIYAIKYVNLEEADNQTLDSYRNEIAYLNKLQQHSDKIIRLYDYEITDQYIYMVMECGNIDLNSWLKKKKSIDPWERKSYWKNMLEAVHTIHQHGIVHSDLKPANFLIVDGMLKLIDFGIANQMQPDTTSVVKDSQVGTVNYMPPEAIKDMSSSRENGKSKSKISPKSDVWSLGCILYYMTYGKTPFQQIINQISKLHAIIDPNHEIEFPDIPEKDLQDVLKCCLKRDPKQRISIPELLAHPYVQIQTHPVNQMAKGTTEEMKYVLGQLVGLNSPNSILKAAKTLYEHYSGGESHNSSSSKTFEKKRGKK

Sequence of TRAF2 and NCK-interacting protein kinase (Homo sapiens) (Q9UKE5 whole entry, looked up): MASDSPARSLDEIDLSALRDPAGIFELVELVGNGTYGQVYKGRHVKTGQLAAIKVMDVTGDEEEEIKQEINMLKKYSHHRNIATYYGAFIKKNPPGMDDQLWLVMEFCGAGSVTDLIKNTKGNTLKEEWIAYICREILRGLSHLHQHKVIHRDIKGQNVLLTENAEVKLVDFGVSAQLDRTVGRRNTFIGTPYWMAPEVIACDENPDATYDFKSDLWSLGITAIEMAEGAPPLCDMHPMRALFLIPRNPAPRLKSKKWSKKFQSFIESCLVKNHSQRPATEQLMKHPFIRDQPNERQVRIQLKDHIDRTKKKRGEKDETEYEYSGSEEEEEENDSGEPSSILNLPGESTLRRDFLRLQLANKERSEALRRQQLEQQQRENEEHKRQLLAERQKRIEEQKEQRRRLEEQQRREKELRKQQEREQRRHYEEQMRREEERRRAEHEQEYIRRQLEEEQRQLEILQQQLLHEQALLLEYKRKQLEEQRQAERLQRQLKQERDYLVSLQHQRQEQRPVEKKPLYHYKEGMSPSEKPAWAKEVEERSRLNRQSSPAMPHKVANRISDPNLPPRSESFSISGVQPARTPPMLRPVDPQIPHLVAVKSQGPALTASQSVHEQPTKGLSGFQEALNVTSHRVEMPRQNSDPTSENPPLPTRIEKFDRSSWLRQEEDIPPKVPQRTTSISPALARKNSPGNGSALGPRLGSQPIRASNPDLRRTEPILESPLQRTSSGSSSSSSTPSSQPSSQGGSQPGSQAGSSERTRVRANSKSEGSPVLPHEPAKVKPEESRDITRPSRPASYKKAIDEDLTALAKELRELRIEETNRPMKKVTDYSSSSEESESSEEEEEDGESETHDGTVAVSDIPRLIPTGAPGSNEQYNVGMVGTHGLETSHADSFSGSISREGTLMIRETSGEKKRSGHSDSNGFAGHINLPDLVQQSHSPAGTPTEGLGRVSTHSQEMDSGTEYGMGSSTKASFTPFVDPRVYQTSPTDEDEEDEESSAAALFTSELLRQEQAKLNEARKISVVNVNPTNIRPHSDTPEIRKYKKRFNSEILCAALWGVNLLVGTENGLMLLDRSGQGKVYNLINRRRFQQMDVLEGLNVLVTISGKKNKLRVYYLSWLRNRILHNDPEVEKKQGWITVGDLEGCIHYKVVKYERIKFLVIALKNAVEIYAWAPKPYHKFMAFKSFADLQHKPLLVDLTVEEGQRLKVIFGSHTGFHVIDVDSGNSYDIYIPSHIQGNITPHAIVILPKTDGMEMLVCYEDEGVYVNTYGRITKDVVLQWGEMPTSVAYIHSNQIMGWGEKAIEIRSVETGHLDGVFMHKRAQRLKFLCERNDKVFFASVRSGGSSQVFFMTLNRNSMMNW
Sequence of Platelet-derived growth factor receptor beta (Homo sapiens) (P09619 whole entry): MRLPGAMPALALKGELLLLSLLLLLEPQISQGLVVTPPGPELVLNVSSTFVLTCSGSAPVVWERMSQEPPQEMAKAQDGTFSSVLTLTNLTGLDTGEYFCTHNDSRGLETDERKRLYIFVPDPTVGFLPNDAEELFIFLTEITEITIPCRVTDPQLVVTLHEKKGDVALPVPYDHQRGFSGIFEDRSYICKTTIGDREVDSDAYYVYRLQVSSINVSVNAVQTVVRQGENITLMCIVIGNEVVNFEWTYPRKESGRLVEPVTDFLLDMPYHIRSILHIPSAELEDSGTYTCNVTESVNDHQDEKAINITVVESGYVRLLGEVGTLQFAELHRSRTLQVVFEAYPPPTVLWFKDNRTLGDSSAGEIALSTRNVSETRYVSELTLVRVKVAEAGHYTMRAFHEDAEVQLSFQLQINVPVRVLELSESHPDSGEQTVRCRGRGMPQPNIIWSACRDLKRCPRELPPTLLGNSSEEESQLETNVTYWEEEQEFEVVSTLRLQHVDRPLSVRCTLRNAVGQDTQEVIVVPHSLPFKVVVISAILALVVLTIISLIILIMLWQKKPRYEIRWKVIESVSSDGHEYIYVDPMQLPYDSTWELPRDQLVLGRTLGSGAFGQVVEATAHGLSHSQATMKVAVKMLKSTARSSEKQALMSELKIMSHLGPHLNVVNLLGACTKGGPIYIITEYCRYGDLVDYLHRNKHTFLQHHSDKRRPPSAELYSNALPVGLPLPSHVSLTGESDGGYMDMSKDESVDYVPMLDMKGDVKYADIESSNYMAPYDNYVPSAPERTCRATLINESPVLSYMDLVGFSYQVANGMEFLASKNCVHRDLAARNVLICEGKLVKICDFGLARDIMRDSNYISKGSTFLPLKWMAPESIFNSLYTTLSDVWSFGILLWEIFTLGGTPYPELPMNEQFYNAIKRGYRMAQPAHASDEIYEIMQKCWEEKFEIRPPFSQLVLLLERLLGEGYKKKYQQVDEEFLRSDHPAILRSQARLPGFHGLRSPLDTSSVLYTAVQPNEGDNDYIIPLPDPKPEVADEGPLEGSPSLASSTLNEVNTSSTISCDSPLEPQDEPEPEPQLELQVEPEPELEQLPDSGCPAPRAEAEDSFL
Sequence of Protein-tyrosine kinase 6 (Homo sapiens) (Q13882 whole entry, looked up): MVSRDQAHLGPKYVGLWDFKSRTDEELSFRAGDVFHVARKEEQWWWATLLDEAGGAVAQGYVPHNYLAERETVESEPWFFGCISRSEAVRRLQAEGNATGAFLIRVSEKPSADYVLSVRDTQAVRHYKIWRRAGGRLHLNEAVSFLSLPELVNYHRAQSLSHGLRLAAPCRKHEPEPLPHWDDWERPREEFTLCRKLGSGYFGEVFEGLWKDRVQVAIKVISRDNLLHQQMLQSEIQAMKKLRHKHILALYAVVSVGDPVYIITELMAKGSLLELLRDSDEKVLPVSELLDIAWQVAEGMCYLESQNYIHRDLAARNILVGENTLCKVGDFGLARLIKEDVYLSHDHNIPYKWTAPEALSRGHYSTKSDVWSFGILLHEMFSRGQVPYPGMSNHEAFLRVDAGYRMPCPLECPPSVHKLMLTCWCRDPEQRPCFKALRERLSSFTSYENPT
Sequence of LIM domain kinase 1 (Homo sapiens) (P53667 whole entry, looked up, the tested form may be a part): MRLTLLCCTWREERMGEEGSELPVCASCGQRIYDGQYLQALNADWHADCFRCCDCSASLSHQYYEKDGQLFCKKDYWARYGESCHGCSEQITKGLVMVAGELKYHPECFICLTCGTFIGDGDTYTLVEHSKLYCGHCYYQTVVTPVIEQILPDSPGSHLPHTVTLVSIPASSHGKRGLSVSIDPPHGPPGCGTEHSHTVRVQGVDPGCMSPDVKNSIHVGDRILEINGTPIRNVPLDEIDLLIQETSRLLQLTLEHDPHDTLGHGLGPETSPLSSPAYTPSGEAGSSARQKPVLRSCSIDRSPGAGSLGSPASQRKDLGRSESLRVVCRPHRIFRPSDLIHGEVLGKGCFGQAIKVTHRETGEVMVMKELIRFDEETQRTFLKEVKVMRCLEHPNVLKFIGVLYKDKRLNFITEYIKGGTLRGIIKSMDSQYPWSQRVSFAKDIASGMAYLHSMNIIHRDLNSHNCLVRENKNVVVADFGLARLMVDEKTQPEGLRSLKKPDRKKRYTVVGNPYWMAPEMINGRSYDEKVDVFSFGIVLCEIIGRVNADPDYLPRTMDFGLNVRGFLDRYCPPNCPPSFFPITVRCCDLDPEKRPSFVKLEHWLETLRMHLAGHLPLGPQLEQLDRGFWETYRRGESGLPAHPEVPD
Sequence of Mast/stem cell growth factor receptor Kit (Homo sapiens) (P10721 whole entry, the tested form may be a part): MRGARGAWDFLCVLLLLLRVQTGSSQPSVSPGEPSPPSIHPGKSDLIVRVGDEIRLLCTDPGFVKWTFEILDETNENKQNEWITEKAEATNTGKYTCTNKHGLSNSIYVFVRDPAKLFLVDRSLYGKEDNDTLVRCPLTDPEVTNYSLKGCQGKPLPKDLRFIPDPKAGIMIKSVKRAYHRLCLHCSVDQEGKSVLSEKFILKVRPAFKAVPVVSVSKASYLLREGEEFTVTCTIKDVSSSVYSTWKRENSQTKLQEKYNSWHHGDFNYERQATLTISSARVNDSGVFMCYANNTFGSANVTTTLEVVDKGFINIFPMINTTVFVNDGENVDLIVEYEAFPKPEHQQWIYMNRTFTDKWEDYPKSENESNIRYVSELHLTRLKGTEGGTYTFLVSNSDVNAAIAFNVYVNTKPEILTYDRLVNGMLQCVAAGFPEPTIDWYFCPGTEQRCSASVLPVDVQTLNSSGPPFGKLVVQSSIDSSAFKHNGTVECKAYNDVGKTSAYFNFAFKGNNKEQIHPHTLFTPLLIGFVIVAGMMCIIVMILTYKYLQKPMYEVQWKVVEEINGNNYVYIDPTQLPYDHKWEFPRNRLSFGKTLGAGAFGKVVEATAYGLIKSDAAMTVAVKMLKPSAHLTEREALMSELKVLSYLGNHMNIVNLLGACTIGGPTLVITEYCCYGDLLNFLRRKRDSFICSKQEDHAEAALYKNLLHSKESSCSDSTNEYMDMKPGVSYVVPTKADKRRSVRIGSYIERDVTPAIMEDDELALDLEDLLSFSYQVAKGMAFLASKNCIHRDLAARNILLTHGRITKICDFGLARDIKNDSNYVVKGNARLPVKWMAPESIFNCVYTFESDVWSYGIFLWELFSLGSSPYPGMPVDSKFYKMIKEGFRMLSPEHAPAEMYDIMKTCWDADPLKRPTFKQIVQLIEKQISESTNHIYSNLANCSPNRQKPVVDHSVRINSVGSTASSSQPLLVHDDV

SMILES: COc1cc2ncnc(N[C@H](C)c3cccc4ccccc34)c2cc1OC
- Activity [1]: 100%
- Activity [2]: 96%
- Activity [3]: 80%
- Activity [4]: 81%
- Activity [5]: 91%
- Activity [6]: 81%
- Activity [7]: 100%
- Activity [8]: 100%
- Activity [9]: 95%
